Some test systems named below: XF498; M19-MEL; DMS-273; DLD-1; RXF 631; LXFL 529; SNB-78; DMS-114; HOP-18.
Experiment in all cases: NCI tumour cell line growth inhibition, 48 h

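Protocol summary: plate cells (96-well), add compound at 5 concentrations, incubate 48 h, interpolate endpoints linearly. GI50: concentration for 50% inhibition of growth.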 Calls of active or inactive are those of the source. Cut-off read from the data, not from the text of the source: active = GI50 up to about 1.1 µM and inactive = higher.

In the case of `Cc1cc(NCCCCCCNc2cc(C)nc3cc(N(C)C)ccc23)c2ccc(N(C)C)cc2n1`, the GI50 with XF498 was 13.7 µM (inactive); in the assay with M19-MEL, 27.7 µM (inactive); in the assay on DMS-273 it was 3.64 µM (inactive); in the assay on DLD-1 it was 39.3 µM (inactive); in the assay with RXF 631, > 100 µM (inactive).

As for `CC(=O)Nc1ccc(C(=O)NN2C(=O)C(Cl)C2c2ccccc2)cc1` (configuration not stated), the GI50 in the assay on LXFL 529, with M19-MEL, in the assay on DMS-273, in the assay on SNB-78 and with DLD-1 was > 100 µM (inactive) each time.

As to `[O-]c1c2c(nn1-c1ccccc1)c1ccccc1c[n+]2Cc1ccccc1`, the GI50 with DMS-114, in the assay on XF498, in the assay on HOP-18, with LXFL 529, in the assay with M19-MEL and in the assay with DMS-273 was > 100 µM (inactive) throughout. Also, the GI50 in the assay with SNB-78, in the assay on DLD-1 and in the assay with RXF 631 was > 100 µM (inactive) each time.

`COc1ccc(C[C@@H]2NC[C@@H](O)[C@@H]2OC(C)=O)cc1`: the GI50 in the assay with DMS-114 is 1.45 µM (inactive); in the assay with HOP-18 it was 1.73 µM (inactive); in the assay on LXFL 529 it was 1.32 µM (inactive); in the assay with M19-MEL, 1.79 µM (inactive); in the assay on DMS-273 it was 0.634 µM (active); with DLD-1, 1.77 µM (inactive).

`CSC(C1c2ccccc2N(c2ccc(C)cc2)c2[nH]c(=O)n(C)c(=O)c21)S(=O)(=O)c1ccc(C)cc1` (configuration not stated): the GI50 with DMS-114, with XF498, in the assay on LXFL 529, in the assay on M19-MEL, in the assay with DMS-273 and in the assay on SNB-78 was > 100 µM (inactive) in each case. Further, the GI50 in the assay with DLD-1 is > 100 µM (inactive).

As for `C[C@@]12[Se]c3ccccc3[C@]1(C)[Se]c1ccccc12`, the GI50 in the assay with DMS-114 was 2.12 µM (inactive); in the assay on HOP-18 it was > 100 µM (inactive); in the assay with LXFL 529, > 100 µM (inactive); in the assay with M19-MEL it was 5.68 µM (inactive); in the assay on DMS-273 it was 3.61 µM (inactive); with DLD-1, > 100 µM (inactive).

As to `C=C(C)C(O)CCC1(C)C=Cc2c(c(C)cc3c2[nH]c2ccccc23)O1` (configuration not stated), the GI50 in the assay with DMS-114 is 11.6 µM (inactive); in the assay on XF498, 6.67 µM (inactive); with LXFL 529, 8.05 µM (inactive); in the assay on M19-MEL, 13.2 µM (inactive); in the assay with SNB-78, 8.77 µM (inactive); in the assay with DLD-1 it was 7.28 µM (inactive).

`C[N+](C)(C)CC1CCCCC1=O` (configuration not stated): the GI50 in the assay with DMS-114 is 36.9 µM (inactive); with HOP-18, 16.3 µM (inactive); in the assay with M19-MEL it was 18.5 µM (inactive); with DMS-273, 71.3 µM (inactive); in the assay on DLD-1, 19.8 µM (inactive).

For `C[N+]1(CCNP(=S)(NCC[N+]2(C)Cc3c(ccc4c3OCO4)C3C2c2cc4c(cc2C[C@@H]3O)OCO4)NCC[N+]2(C)Cc3c(ccc4c3OCO4)C3C2c2cc4c(cc2C[C@@H]3O)OCO4)Cc2c(ccc3c2OCO3)C2C1c1cc3c(cc1C[C@H]2O)OCO3` (some centres not stated), the GI50 in the assay with XF498, in the assay with HOP-18, in the assay with LXFL 529, in the assay on M19-MEL, in the assay with DMS-273 and in the assay with SNB-78 was < 0.00191 µM (active) throughout. Moreover, in the assay on DLD-1, the GI50 was < 0.00191 µM (active).

Consider `O=C(/C=C/c1ccccc1)CC(=O)CCC(=O)Nc1ccc(Cl)cc1`, for which the GI50 in the assay with DMS-114 is 57 µM (inactive); in the assay on HOP-18 it was > 100 µM (inactive); in the assay on LXFL 529, 6.75 µM (inactive); with M19-MEL it was 71 µM (inactive); in the assay with DMS-273, 52.7 µM (inactive); in the assay with SNB-78 it was > 100 µM (inactive). Further, the GI50 in the assay with DLD-1 is 29.2 µM (inactive).

With `CC(O)CCCOC(c1ccccc1)(c1ccccc1)c1ccccc1` (configuration not stated), the GI50 with DMS-114 is 13.2 µM (inactive); in the assay with XF498, 14.7 µM (inactive); in the assay with LXFL 529, 14.7 µM (inactive); with M19-MEL, 17 µM (inactive); with SNB-78 it was 14.7 µM (inactive); with DLD-1 it was 17.2 µM (inactive).

For the compound `Oc1c(C(Nc2cccc3cccnc23)c2ccccc2)ccc2cccnc12` (configuration not stated), the GI50 in the assay with DMS-114 was 2.65 µM (inactive); with HOP-18, 4.78 µM (inactive); in the assay on LXFL 529, 4.13 µM (inactive); in the assay on M19-MEL, 5.53 µM (inactive); with DMS-273 it was 5.16 µM (inactive).

Regarding `COc1ccc(CNc2nc3ccc(C(F)(F)F)cc3nc2-c2ccccc2)cc1OC`, the GI50 is 13.2 µM (inactive) with XF498; > 100 µM (inactive) in the assay with HOP-18; 43.4 µM (inactive) in the assay with LXFL 529; > 100 µM (inactive) in the assay on M19-MEL; 35.1 µM (inactive) in the assay on DMS-273; > 100 µM (inactive) in the assay on SNB-78. In addition, the GI50 in the assay with RXF 631 was 16.7 µM (inactive).

Turning to `COc1ccc2c(c1)Cc1c-2[nH]c2cc3c(cc2c1=O)OCO3`, the GI50 was 4.07 µM (inactive) with DMS-114; 15 µM (inactive) in the assay on XF498; 17.5 µM (inactive) with HOP-18; 19.5 µM (inactive) in the assay on LXFL 529; 15.7 µM (inactive) with M19-MEL; 7.67 µM (inactive) in the assay with DMS-273. Further, the GI50 in the assay with SNB-78 is 8.83 µM (inactive); in the assay with DLD-1, 13.9 µM (inactive).

For the compound `CCCCCCCCCCCCCCCCCC(CCCCCCCCCCCCCCCCC)OP(=O)(O)O`, the GI50 in the assay on DMS-114, in the assay on HOP-18, with LXFL 529, with M19-MEL, with DMS-273 and in the assay on SNB-78 was > 100 µM (inactive) each time.

On to `COC(=O)c1cc2ccccc2c2nc3ccccc3c(Cl)c12`, for which the GI50 with DMS-114, with XF498, in the assay with LXFL 529, with M19-MEL, with DMS-273 and in the assay on DLD-1 was > 100 µM (inactive) each time. Moreover, the GI50 in the assay with RXF 631 is > 100 µM (inactive).

For `CN1CCN(c2nc(N)c(Br)c(Cl)n2)CC1`, the GI50 in the assay with DMS-114, in the assay on XF498, in the assay on LXFL 529, in the assay with M19-MEL, in the assay with DMS-273 and in the assay with SNB-78 was > 100 µM (inactive) in each case. The GI50 in the assay on DLD-1 is > 100 µM (inactive).

Regarding `CC1=CC[C@@H](C(C)(C)O)C[C@@H]1O`, the GI50 in the assay on DMS-114, in the assay on XF498, with LXFL 529, with M19-MEL, in the assay on SNB-78 and in the assay with DLD-1 was > 5000 µM (inactive) each time. For the same compound, the GI50 with RXF 631 is > 5000 µM (inactive).

For `Cc1ccc(NC(=O)CCc2cc(C(C)(C)C)nc(S)n2)cc1C`, the GI50 in the assay with DMS-114, in the assay on XF498, with HOP-18, in the assay with LXFL 529, with DMS-273 and with SNB-78 was > 100 µM (inactive) each time.

Regarding `CN(C)CCNC(=O)c1cccc2c(Nc3ccc(S(N)(=O)=O)cc3)c3ccccc3nc12`, the GI50 with DMS-114 was 0.461 µM (active); in the assay on XF498, 0.209 µM (active); with HOP-18, 2.71 µM (inactive); in the assay on LXFL 529, 0.333 µM (active); in the assay with DMS-273, 0.783 µM (active); in the assay with SNB-78 it was 1.82 µM (inactive). Further, the GI50 is 1.72 µM (inactive) in the assay on DLD-1 and 1.4 µM (inactive) with RXF 631.

In the case of `O=C1C(Cl)C(c2cccc([N+](=O)[O-])c2)N1n1cnc2ccccc2c1=O` (configuration not stated), the GI50 in the assay on DMS-114 is 86.9 µM (inactive); with HOP-18, 11 µM (inactive); in the assay on LXFL 529 it was 92.3 µM (inactive); with M19-MEL it was > 100 µM (inactive); in the assay with DMS-273, > 100 µM (inactive); in the assay with DLD-1 it was > 100 µM (inactive).

With `CC(N)Cc1cccc(C(F)(F)F)c1` (configuration not stated), the GI50 with DMS-114, in the assay with HOP-18, with LXFL 529, in the assay on M19-MEL, in the assay on DMS-273 and in the assay with SNB-78 was > 100 µM (inactive) throughout. For the same compound, the GI50 in the assay on DLD-1 and in the assay with RXF 631 was > 100 µM (inactive) each time.

In the case of `COC(=O)C1=C(C(=O)OC)C23CC1C1C(C(=O)OC)=C(C(=O)OC)C12C1C=CC3C2C(=O)OC(=O)C21` (configuration not stated), the GI50 in the assay with DMS-114 is 26.6 µM (inactive); with XF498, 45.9 µM (inactive); with LXFL 529, 39.6 µM (inactive); with M19-MEL, 50.9 µM (inactive); in the assay with DMS-273 it was 36.6 µM (inactive); in the assay with SNB-78, 24.2 µM (inactive). The figures for the GI50 in the assay with DLD-1 and in the assay on RXF 631 were 76.9 µM (inactive) and 71.6 µM (inactive), respectively.
